Source: patent US11266644B2, “Pharmaceutical composition for preventing and treating diabetic nephropaphy including adenosine derivative” (FUTURE MEDICINE CO., LTD., priority 2017, dated 2022)

How the values were obtained:
[1] = test system: db/db diabetic mice; assay: Type 2 diabetic renal damage, db/db mice, comparison with Losartan (Experimental Example 2); type: in vivo; details: oral, daily 12 weeks, Formula B 10 mg/kg; for glomerular filtration rate decrease / glomerular hypertrophy / proteinuria / tubular injury: Losartan 1.5 mg/kg (FIG. 4-6); for renal fibrosis: Losartan 1.5 mg/kg (FIG. 7, 8); for inflammation response: Losartan 1.5 mg/kg (FIG. 9, 10); for oxidative stress: Losartan 1.5 mg/kg (FIG. 11, 12); for lipid accumulation: Losartan 1.5 mg/kg (FIG. 13, 14)
Experimental: In order to compare the therapeutic efficacy between the adenosine derivative of the present invention and Losartan, which is used for alleviating the symptoms of diabetic kidney disease, the following animal experiments were performed.
The compound of Chemical Formula B and rosartan were oral administered at a dose of 10 mg/kg and 1.5 mg/kg to 8-week-old normal db/m mice in which diabetes were not induced and 8-week-old db/db diaetic mice in which diabetes were induced, respectively for 12 weeks daily. The kidneys of the solvent control group and the drug administration group were extracted to observe the histological changes of the glomeruli and the changes in the indicators for renal damage such as proteinuria, glomerular filtration rate reduction, tubular injury, glomerular hypertrophy, renal fibrosis, inflammatory response, oxidative stress and lipid accumulation were compared.
(§1) The morphological analysis of kidney including glomeruli was performed by PAS staining of kidney tissues followed by random selection of each 50, quantification by an image analyzer and statistics, and urinary albumin and LPO were analyzed by electrophoresis and ELISA (Enzyme-Linked ImmunoSorbent Assay) and mRNA expression was analyzed by real time PCR.
Glomerular filtration rate was calculated by measuring blood and urine creatinine using the Jaffe method and changes in kidney protein were measured by western blot, ELISA and immunohistochemistry.
In FIG. 4 to FIG. 14, db/m and db/db represent the mice to which the solvent (0.25% CMC) used in administering the compound of Chemical Formula B was administered, respectively, and db/m+LJ2698 and db/db+LJ2698 represent normal mice and diabetic mice to which the compound of Chemical Formula B is administered for 12 weeks, respectively. db/db+Losartan represents diabetic mice to which Losartan was administered for 12 weeks.

[2] = test system: db/db diabetic mice; assay: Type 2 diabetic renal damage, db/db mice, dose-dependency (Experimental Example 1); type: in vivo; details: db/db mice, 1.5, 5 and 10 mg/kg
Experimental: The following animal experiments were performed to examine the inhibitory effect of the adenosine derivatives of the present invention on renal damage in the type 2 diabetes model.
After 12 weeks of the administration, kidneys of the solvent control group and the test substance administration group were extracted to observe the histological changes of the glomeruli and the levels of urinary albumin and LPO (lipid peroxide) or the amount of mRNA expression for nephrin, NGAL, TGF-β, collagen IV, fibronectin, MCP-1 and ICAM-1 was set as an index for renal damage and the protective effect for kidney was measured. Db/m mice in which diabetes were not induced, were added as a control group and only a solvent was administered to observe and measure the above items.
Of these indices, urinary albumin level means proteinuria, nephrin reduction means podocyte injury, NGAL increase means tubular injury, TGF-β increase means fibrosis, inflammatory cytokine (MCP-1, ICAM-1) increase means Inflammatory response and LPO values indicate oxidative stress.
as §1, with “of” for “of kidney including”, “PAS (Periodic Acid Schiff)” for “PAS”
In FIG. 2 and FIG. 3, db/m represents normal mice, db/db represents diabetic mice administered with only solvent (0.25% CMC) and db/db+LJ2698 (1.5 mg/kg), db/db+LJ2698 (5 mg/kg) and db/db+LJ2698 (10 mg/kg) represent diabetic mice in which the compound of Chemical Formula B is administered at 1.5, 5 and 10 mg/kg, respectively, for 12 weeks daily.

[3] = test system: mice-derived tubular epithelial cells; assay: Inflammation and fibrosis response in cultured tubular epithelial cells (Experimental Example 4); type: cell-based; details: induced with high glucose, angiotensin II and free fatty acids (FIG. 20)
Experimental: (§2) In order to examine the anti-inflammatory and anti-fibrotic effects of the adenosine derivatives of the present invention on cultured cells, the following in vitro experiments were performed.

[4] = test system: mice in which type 1 diabetes was induced (STZ); assay: Type 1 diabetic renal damage, streptozotocin-induced diabetic mice (Experimental Example 3); type: in vivo; details: daily 12 weeks, Formula B 10 mg/kg
Experimental: The following animal experiments were performed to examine the inhibitory effect on the kidney injury by administering the adenosine derivative of the present invention to an animal model of type 1 diabetes.
After streptozotocin (STZ) was administered to normal mice for 5 days to induce type 1 diabetes, the mice have been classified into, a group in which 10 mg/kg compound of Chemical Formula B was administered daily, a group in which 1.5 mg/kg of LC158809, a type of ARB, was administered daily, and a group in which 10 mg/kg compound of Chemical Formula B and 1.5 mg/kg of LC158809 were co-administered daily, then all groups were given total of 12 weeks administration.
Kidney function and histologic changes of the kidney and the like were examined for normal mice to which streptozotocin was not administered, diabetic mice to which the only solvent was administered after 12 weeks of streptozotocin administration and diabetic mice to which test substance was administered after 12 weeks of streptozotocin administration.
FIG. 15 to FIG. 17 are graphs showing the results of measuring the levels of urinary albumin, nephrin and 8-isoprostan according to the above-mentioned experiment. Urine albumin, nephrin and 8-isoprostanone levels were measured as indicators of proteinuria, glomerular podocyte damage and oxidative stress, respectively.
In FIG. 15 to FIG. 19, Control and STZ represent normal mice and mice in which type 1 diabetes was induced, and STZ+ARB, STZ+LJ2698 and STZ+ARB+LJ2698 represent diabetic mice in which […] and the compound of Chemical Formula B+LC158809 (co-administration) were administered for 12 weeks, respectively.

[5] = test system: mice-derived glomerular podocyte; assay: Inflammation and fibrosis response in cultured glomerular podocytes (Experimental Example 4); type: cell-based; details: induced with high glucose, angiotensin II and free fatty acids (FIG. 20)
Experimental: as §2

[6] = LC158809 1.5 mg/kg (FIG. 18, 19)

## CCCCc1nc(Cl)c(CO)n1Cc1ccc(-c2ccccc2-c2nn[nH]n2)cc1 [Losartan, (2-butyl-4-chloro-1-{[2′-(1H-tetrazol-5-yl)biphenyl-4-yl]methyl}-1H-imidazol-5-yl}methanol, reference compound]
[1]
  glomerular filtration rate decrease: similar
  glomerular hypertrophy: similar
  proteinuria: similar
  tubular injury: similar
  renal fibrosis: inhibited to a similar level
  inflammation response: inhibited to a similar level
  oxidative stress: inhibited to a similar level
  lipid accumulation: inhibited to a similar level

## O[C@@H]1[C@H](O)CS[C@H]1n1cnc2c(NCc3cccc(Cl)c3)nc(Cl)nc21 [compound of Chemical Formula B, (2R,3R,4S)-2-(2-chloro-6-(3-chlorobenzylamino)-9H-purin-9-yl)tetrahydrothiophene-3,4-diol]
[2]; 12 weeks (FIG. 1, 2)
  vasodilation (glomerular mesangium): significantly inhibited
[2]; 12 weeks (FIG. 3)
  urinary albumin levels (proteinuria): inhibited dependently on dose
[2]; 12 weeks, PAS staining (FIG. 1, 2)
  glomerular hypertrophy: significantly inhibited
[2]; 12 weeks, mRNA (FIG. 3)
  NGAL (tubular injury indicator): inhibited dependently on dose
  TGF-β (fibrosis indicator): inhibited dependently on dose
  collagen IV: inhibited dependently on dose
  nephrin (podocyte injury indicator): inhibited dependently on dose
[3]
  anti-fibrosis effect (collagen IV): anti-fibrosis
  anti-inflammatory effect (Nephrin, MCP-1): anti-inflammatory effect
  antioxidant effect (NOX4): antioxidant
[1]
  glomerular filtration rate decrease: inhibited
  glomerular hypertrophy: inhibited
  proteinuria: inhibited
  tubular injury: inhibited
  renal fibrosis: inhibited to a similar level
  inflammation response: inhibited to a similar level
  oxidative stress: inhibited to a similar level
  lipid accumulation: inhibited to a similar level
[4]; LC158809 1.5 mg/kg (FIG. 16)
  urinary nephrin (glomerular podocyte damage): significantly reduced
[4]; [6]
  fibrosis of the kidney: significantly reduced
  inflammation of the kidney: significantly reduced
[4]; LC158809 1.5 mg/kg, alone or co-administered (FIG. 15)
  urinary albumin (proteinuria): significantly reduced
[4]; LC158809 1.5 mg/kg, alone or co-administered (FIG. 17)
  urinary 8-isoprostanone (oxidative stress): significantly reduced
[5]
  anti-fibrosis effect (collagen IV): anti-fibrosis
  anti-inflammatory effect (Nephrin, MCP-1): anti-inflammatory effect
  antioxidant effect (NOX4): antioxidant
